This note sets out measurements from patent publication US20070049593A1 (priority 2004, published 2007).

Where a name gives a salt, the structure may show the parent alone.

The target in this experiment is T1, HCV polymerase (Hepatitis C virus genotype 1b, UniProt P26663).
T1 construct: a region encoding NS5B (J Virol 1991 March, 65(3), 1105-13, 544 amino acids after deletion of 47 amino acids on the C-terminal); 6xHis (C); made in house; host or cells: Escherichia coli
T1 sequence (P26663 2420-2963): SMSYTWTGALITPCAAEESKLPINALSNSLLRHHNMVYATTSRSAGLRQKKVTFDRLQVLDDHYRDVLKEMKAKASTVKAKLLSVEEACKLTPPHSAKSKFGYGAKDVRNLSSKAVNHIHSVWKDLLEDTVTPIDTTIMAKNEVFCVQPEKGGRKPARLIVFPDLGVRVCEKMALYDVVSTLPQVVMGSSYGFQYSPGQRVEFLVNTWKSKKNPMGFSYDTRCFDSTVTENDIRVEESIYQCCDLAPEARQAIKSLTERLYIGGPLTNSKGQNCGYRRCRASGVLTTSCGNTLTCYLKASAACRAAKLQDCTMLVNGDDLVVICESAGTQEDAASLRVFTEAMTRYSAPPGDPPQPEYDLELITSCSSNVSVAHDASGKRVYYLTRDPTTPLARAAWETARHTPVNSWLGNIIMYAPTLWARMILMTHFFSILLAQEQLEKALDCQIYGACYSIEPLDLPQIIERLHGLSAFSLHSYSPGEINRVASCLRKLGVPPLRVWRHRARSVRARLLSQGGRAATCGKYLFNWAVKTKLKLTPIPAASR
Briefly: biochemical. Further details: species or system HCV BK strain. In a few lines: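 His-tagged NS5B (BK strain, 47-aa C-terminal deletion, E. coli-expressed) at 0.5 μg/ml copied 5 μg/ml run-off RNA bearing the HCV 3′ UTR with 2 μM UTP plus [3H]UTP, 50 μM ATP/GTP, in pH 7.5 Tris with 5 mM MgCl2, 25 °C, 90 min. TCA-precipitated RNA was counted and IC50 calculated.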
In turn, `CN(C)Cc1cccc(-c2cccc3c2OCCn2c-3c(C3CCCCC3)c3ccc(C(=O)O)cc32)c1` [Example 2-328, 12-cyclohexyl-4-(3-dimethylaminomethylphenyl)-6,7-dihydro-5-oxa-7a-azadibenzo[a,e]azulene-9-carboxylic acid monohydrochloride] displayed an IC50 of less than 100 nM.

`CCOC(=O)c1ccc2c(c1)nc(C(C)(C)NC(=O)c1ccc3c(C4CCCCC4)c4n(c3c1)CCOc1ccccc1-4)n2C` [Example 2-329, ethyl 2-{1-[(12-cyclohexyl-6,7-dihydro-5-oxa-7a-azadibenzo[a,e]azulene-9-carbonyl)amino]-1-methylethyl}-1-methyl-1H-benzimidazole-5-carboxylate] displayed an IC50 of less than 100 nM.

Turning to `Cn1c(C(C)(C)NC(=O)c2ccc3c(C4CCCCC4)c4n(c3c2)CCOc2ccccc2-4)nc2cc(C(=O)O)ccc21` [Example 2-330, 2-{1-[(12-cyclohexyl-6,7-dihydro-5-oxa-7a-azadibenzo[a,e]azulene-9-carbonyl)amino]-1-methylethyl}-1-methyl-1H-benzimidazole-5-carboxylic acid], the IC50 was less than 100 nM. The same measure for `COC(=O)c1cc2nc(C(C)(C)NC(=O)c3ccc4c(C5CCCCC5)c5n(c4c3)CCOc3cc(OC)ccc3-5)[nH]c2cc1OC` [Example 2-331, methyl 2-{1-[(12-cyclohexyl-3-methoxy-6,7-dihydro-5-oxa-7a-azadibenzo[a,e]azulene-9-carbonyl)amino]-1-methylethyl}-6-methoxy-1H-benzimidazole-5-carboxylate]: less than 100 nM; for `COc1ccc2c(c1)OCCn1c-2c(C2CCCCC2)c2ccc(C(=O)NC(C)(C)c3nc4ccc(C(=O)O)cc4[nH]3)cc21` [Example 2-332, 2-{1-[(12-cyclohexyl-3-methoxy-6,7-dihydro-5-oxa-7a-azadibenzo[a,e]azulene-9-carbonyl)amino]-1-methylethyl}-3H-benzimidazole-5-carboxylic acid]: less than 100 nM; for `CCN(CCCCOC)C(=O)C(C)(C)NC(=O)c1ccc2c(C3CCCCC3)c3n(c2c1)CCOc1ccccc1-3` [Example 2-333, N-{1-[N-ethyl-N-(4-methoxybutyl)carbamoyl]-1-methylethyl}-12-cyclohexyl-6,7-dihydro-5-oxa-7a-azadibenzo[a,e]azulene-9-carboxamide]: less than 100 nM. The same measure for `CC(=O)NC1CCN(C(=O)C(C)(C)NC(=O)c2ccc3c(C4CCCCC4)c4n(c3c2)CCOc2ccccc2-4)CC1` [Example 2-334, N-[2-(4-acetylaminopiperidin-1-yl)-1,1-dimethyl-2-oxoethyl]-12-cyclohexyl-6,7-dihydro-5-oxa-7a-azadibenzo[a,e]azulene-9-carboxamide]: less than 100 nM; for `CC(C)(NC(=O)c1ccc2c(C3CCCCC3)c3n(c2c1)CCOc1ccccc1-3)C(=O)N1CCC(NS(C)(=O)=O)CC1` [Example 2-335, N-[2-(4-methanesulfonylaminopiperidin-1-yl)-1,1-dimethyl-2-oxoethyl]-12-cyclohexyl-6,7-dihydro-5-oxa-7a-azadibenzo[a,e]azulene-9-carboxamide]: less than 100 nM; for `COC(=O)c1ccc2nc(C(C)(C)NC(=O)c3ccc4c(C5CCCCC5)c5n(c4c3)CCOc3ccccc3-5)n(C)c2c1` [Example 2-336, methyl 2-{1-[(12-cyclohexyl-6,7-dihydro-5-oxa-7a-azadibenzo[a,e]azulene-9-carbonyl)amino]-1-methylethyl}-3-methyl-3H-benzimidazole-5-carboxylate]: less than 100 nM.

Compound `Cn1c(C(C)(C)NC(=O)c2ccc3c(C4CCCCC4)c4n(c3c2)CCOc2ccccc2-4)nc2ccc(C(=O)O)cc21` [Example 2-337, 2-{1-[(12-cyclohexyl-6,7-dihydro-5-oxa-7a-azadibenzo[a,e]azulene-9-carbonyl)amino]-1-methylethyl}-3-methyl-3H-benzimidazole-5-carboxylic acid] yielded an IC50 of less than 100 nM. The same measure for `COC(=O)[C@H](Cc1ccc(NC(C)=O)cc1)NC(=O)c1ccc2c(C3CCCCC3)c3n(c2c1)CCOc1cc(OC)ccc1-3` [Example 2-338, methyl (S)-3-(4-acetylaminophenyl)-2-[(12-cyclohexyl-3-methoxy-6,7-dihydro-5-oxa-7a-azadibenzo[a,e]azulene-9-carbonyl)amino]propionate]: less than 100 nM; for `COC(=O)[C@H](Cc1ccc(NS(C)(=O)=O)cc1)NC(=O)c1ccc2c(C3CCCCC3)c3n(c2c1)CCOc1cc(OC)ccc1-3` [Example 2-339, methyl (S)-2-[(12-cyclohexyl-3-methoxy-6,7-dihydro-5-oxa-7a-azadibenzo[a,e]azulene-9-carbonyl)amino]-3-(4-methanesulfonylaminophenyl)propionate]: less than 100 nM; for `COc1ccc2c(c1)OCCn1c-2c(C2CCCCC2)c2ccc(C(=O)N[C@@H](Cc3ccc(NC(C)=O)cc3)C(=O)O)cc21` [Example 2-340, (S)-3-(4-acetylaminophenyl)-2-[(12-cyclohexyl-3-methoxy-6,7-dihydro-5-oxa-7a-azadibenzo[a,e]azulene-9-carbonyl)amino]propionic acid]: less than 100 nM. The same measure for `COc1ccc2c(c1)OCCn1c-2c(C2CCCCC2)c2ccc(C(=O)N[C@@H](Cc3ccc(NS(C)(=O)=O)cc3)C(=O)O)cc21` [Example 2-341, (S)-2-[(12-cyclohexyl-3-methoxy-6,7-dihydro-5-oxa-7a-azadibenzo[a,e]azulene-9-carbonyl)amino]-3-(4-methanesulfonylaminophenyl)propionic acid]: less than 100 nM; for `COCCCN(CCN1CCCCC1)c1cccc2c1OCCn1c-2c(C2CCCCC2)c2ccc(C(=O)O)cc21` [Example 2-342]: less than 100 nM. Next, `CN(C)Cc1ccccc1-c1cccc2c1OCCn1c-2c(C2CCCCC2)c2ccc(C(=O)O)cc21` [Example 2-343, 12-cyclohexyl-4-(2-dimethylaminomethylphenyl)-6,7-dihydro-5-oxa-7a-azadibenzo[a,e]azulene-9-carboxylic acid]: less than 100 nM; `O=C(O)c1ccc2c(C3CCCCC3)c3n(c2c1)CCOc1c-3cccc1N1CCCCC1=O` [Example 2-344, 12-cyclohexyl-4-(2-oxopiperidin-1-yl)-6,7-dihydro-5-oxa-7a-azadibenzo[a,e]azulene-9-carboxylic acid]: less than 100 nM; `O=C(O)c1ccc2c(C3CCCCC3)c3n(c2c1)CCOc1c-3cccc1N1CCCCC1` [Example 2-345, 12-cyclohexyl-4-(piperidin-1-yl)-6,7-dihydro-5-oxa-7a-azadibenzo[a,e]azulene-9-carboxylic acid]: less than 100 nM. In turn, `COc1ccc2c(c1)OCCn1c-2c(C2CCCCC2)c2ccc(C(=O)NC(C)(C)c3nc4ccc(C(=O)N(C)C)cc4[nH]3)cc21` [Example 2-346, N-[1-(6-dimethylcarbamoyl-1H-benzimidazol-2-yl)-1-methylethyl]-12-cyclohexyl-3-methoxy-6,7-dihydro-5-oxa-7a-azadibenzo[a,e]azulene-9-carboxamide] had an IC50 of less than 100 nM. Next, `COc1ccc2c(c1)OCCn1c-2c(C2CCCCC2)c2ccc(C(=O)NC(C)(C)c3nc4cc(C(=O)O)c(OC)cc4[nH]3)cc21` [Example 2-347, 2-{1-[(12-cyclohexyl-3-methoxy-6,7-dihydro-5-oxa-7a-azadibenzo[a,e]azulene-9-carbonyl)amino]-1-methylethyl}-6-methoxy-1H-benzimidazole-5-carboxylic acid]: less than 100 nM. The same measure for `COc1ccc2c(c1)OCCn1c-2c(C2CCCCC2)c2ccc(C(=O)NC(C)(C)c3nc4ccccc4o3)cc21` [Example 2-348, N-[1-(benzoxazol-2-yl)-1-methylethyl]-12-cyclohexyl-3-methoxy-6,7-dihydro-5-oxa-7a-azadibenzo[a,e]azulene-9-carboxamide]: less than 100 nM; for `COC(=O)c1ccc(NC(=O)C(C)(C)NC(=O)c2ccc3c(C4CCCCC4)c4n(c3c2)CCOc2cc(OC)ccc2-4)cc1` [Example 2-349, methyl 4-{2-[(12-cyclohexyl-3-methoxy-6,7-dihydro-5-oxa-7a-azadibenzo[a,e]azulene-9-carbonyl)amino]-2-methylpropionylamino}benzoate]: less than 100 nM; for `COc1ccc2c(c1)OCCn1c-2c(C2CCCCC2)c2ccc(C(=O)NC(C)(C)C(=O)Nc3ccc(C(=O)O)cc3)cc21` [Example 2-350, 4-{2-[(12-cyclohexyl-3-methoxy-6,7-dihydro-5-oxa-7a-azadibenzo[a,e]azulene-9-carbonyl)amino]-2-methylpropionylamino}benzoic acid]: less than 100 nM. Next, `CC(C)(NC(=O)c1ccc2c(C3CCCCC3)c3n(c2c1)CCOc1ccccc1-3)c1nc2ccccc2n1CCO` [Example 2-351, N-{1-[1-(2-hydroxyethyl)-1H-benzimidazol-2-yl]-1-methylethyl}-12-cyclohexyl-6,7-dihydro-5-oxa-7a-azadibenzo[a,e]azulene-9-carboxamide]: less than 100 nM; `COC(=O)[C@H](Cc1cccc(C(F)(F)F)c1)NC(=O)c1ccc2c(C3CCCCC3)c3n(c2c1)CCOc1cc(OC)ccc1-3` [Example 2-352, methyl (S)-2-[(12-cyclohexyl-3-methoxy-6,7-dihydro-5-oxa-7a-azadibenzo[a,e]azulene-9-carbonyl)amino]-3-(3-trifluoromethylphenyl)propionate]: less than 100 nM. In turn, `COC(=O)C(Cc1cccc(O)c1)NC(=O)c1ccc2c(C3CCCCC3)c3n(c2c1)CCOc1cc(OC)ccc1-3` (centres unmarked) [Example 2-353, methyl 2-[(12-cyclohexyl-3-methoxy-6,7-dihydro-5-oxa-7a-azadibenzo[a,e]azulene-9-carbonyl)amino]-3-(3-hydroxyphenyl)propionate] yielded an IC50 of less than 100 nM.
